Measured values from PMC8778818, “Synthesis, Structural Characterization and Anticancer Activity of New 5-Trifluoromethyl-2-thioxo-thiazolo[4,5-d]pyrimidine Derivatives” (Pharmaceuticals, 2022).

What was measured:
[1] = tested on: A375, C32, DU145, MCF-7/WT, CHO-K1 and HaCaT cell lines; assay: MTT cell viability assay, all six cell lines; format: cell-based; details: mean over the six cell lines; read-out: Mean A: the mean IC50 for the given compound
Description: (§1) Twelve compounds (2a-e, 3a-d and 4a-c) at a concentration range of 50–5000 μM were tested for their antiproliferative potential against four human cancer cell lines (A375—melanotic melanoma, C32—amelanotic melanoma, DU145—prostate cancer androgen-independent, MCF-7/WT—breast adenocarcinoma) and two normal cell lines: Chinese Hamster Ovary (CHO-K1) and immortalized human keratinocytes from histologically normal skin (HaCaT).
(§2) To determine the antiproliferative activity of newly synthesized compounds, the following cell lines were used: human melanotic melanoma cell line (A375), human amelanotic melanoma cell line (C32), human breast adenocarcinoma cell line (MCF-7/WT), human prostate cancer androgen-independent (DU145) and two normal cell lines: hamster ovarian (CHO-K1) and immortalized human keratinocytes from histologically normal skin (HaCaT). The cells were obtained from the cell line bank of the Department of Molecular and Cellular Biology, Wroclaw Medical University. A375, C32, MCF-7/WT, DU145 and HaCaT cells were grown in a monolayer cultured in Dulbecco’s Modified Eagle’s Medium (DMEM, Sigma-Aldrich, Poznań, Poland), supplemented with 10% of fetal bovine serum (FBS, Gibco, Paisley, UK) and 1% of antibiotics (penicillin/streptomycin, Sigma-Aldrich) and CHO-K1 were grown in HAM’s F-12 medium (Sigma-Aldrich), supplemented with 10% fetal bovine serum (FBS, Gibco) and 1% of antibiotics (penicillin/streptomycin, Sigma-Aldrich). Cell lines were cultured in the polystyrene flasks 25 or 75 cm^2 (Thermo Fisher Scientific, Waltham, MA, USA), which were stored in 37 °C and 5% CO2 in a humidified 95% atmosphere (SteriCult, Thermo Scientific, Alab). The cell medium was exchanged twice a week. The exponentially growing cells were used throughout the experiments. The cells were rinsed with phosphate-buffered saline (PBS, Sigma-Aldrich) and trypsinized by Trypsin-EDTA 0.25% solution (Sigma-Aldrich).
(§3) The influence of the compounds was performed in a monolayer culture on cancer and normal cells. Compounds were initially dissolved in DMSO; further dilutions of the compound were performed in Dulbecco’s Modified Eagle’s Medium supplemented with 10% FBS. Compounds were tested in a 50–5000 µM concentration range. In the in vitro experiments, the concentrations of DMSO in the final solution of the compounds were used 0.05%; 0.1%; 0.5%; 1%, respectively.
(§4) Cell viability was determined using the MTT colorimetric assay. All cell lines were seeded into 96-well plates to a density of 3 × 10^4 cells/well. After 24 h, the culture supernatants were removed and appropriate dilutions of compounds in the culture medium (200 µL/well) were added to the cells’ monolayer cultures and incubated for an additional 72 h. After 72 h of exposition to the compounds and the removal of the culture medium, cell viability was determined by reducing the yellow dye 3-(4,5-dimethyl-2-thiazol)-2,5-diphenyl-2H-tetrazolium bromide (MTT assay, Sigma Saint Louis, MO, USA; In Vitro Toxicology Assay) to a blue formazan product. The absorbance of the resulting solutions in three duplicate experiments was measured at the wavelength of 560 nm in a microplate reader (EnSpire, Perkin Elmer, Kraków, Poland). MTT assay is a colorimetric method that estimates the rate of metabolism in viable cells. Absorbance is directly proportional to the number of viable cells. All the experiments were performed three times and the mean absorbance values were calculated. The methodology for the evaluation of the growth of human cancer and normal cells was described previously. The cell viability in each group was expressed as a percentage of control (untreated) cells.

HOP-92 = assay: NCI-60 screen, Non-Small Cell Lung Cancer HOP-92; format: cell-based, human
HCT-116 = assay: NCI-60 screen, Colon Cancer HCT-116; format: cell-based, human
K-562 = assay: NCI-60 screen, Leukemia K-562; format: cell-based, human
OVCAR-5 = assay: NCI-60 screen, Ovarian Cancer OVCAR-5; format: cell-based, human
HL-60(TB) = assay: NCI-60 screen, Leukemia HL-60(TB); format: cell-based, human
MCF-7/WT = assay: MTT cell viability assay, MCF-7/WT; format: cell-based; details: Homo sapiens, MCF7, 72 h, mean ± SD
Description: as §1, §2, §3, §4

KM12 = assay: NCI-60 screen, Colon Cancer KM12; format: cell-based, human
SF-295 = assay: NCI-60 screen, CNS Cancer SF-295; format: cell-based, human; details: SF-295, five doses 10^−4–10^−8 M
C32 = assay: MTT cell viability assay, C32; format: cell-based, human; details: Homo sapiens, 72 h
Description: as §1, §2, §3, §4

IGROV1 = assay: NCI-60 screen, Ovarian Cancer IGROV1; format: cell-based
SW620 = assay: NCI-60 screen, Colon Cancer SW620; format: cell-based, human
A549/ATCC = assay: NCI-60 screen, Non-Small Cell Lung Cancer A549/ATCC; format: cell-based, human
HT29 = assay: NCI-60 screen, Colon Cancer HT29; format: cell-based, human
UACC-62 = assay: NCI-60 screen, Melanoma UACC-62; format: cell-based, human; details: UACC-62, 10^−5 M one dose
NCI-H522 = assay: NCI-60 screen, Non-Small Cell Lung Cancer NCI-H522; format: cell-based, human
NCI/ADR-RES = assay: NCI-60 screen, Ovarian Cancer NCI/ADR-RES; format: cell-based, human
NCI-H23 = assay: NCI-60 screen, Non-Small Cell Lung Cancer NCI-H23; format: cell-based, human
HOP-62 = assay: NCI-60 screen, Non-Small Cell Lung Cancer HOP-62; format: cell-based
SNB-19 = assay: NCI-60 screen, CNS Cancer SNB-19; format: cell-based, human
A375 = assay: MTT cell viability assay, A375; format: cell-based, human; details: Homo sapiens
Description: as §1, §2, §3, §4

[2] = Homo sapiens, HOP-92, five doses 10^−4–10^−8 M
[3] = Homo sapiens, five doses 10^−4–10^−8 M
[4] = Homo sapiens, SW-620, SW620, five doses 10^−4–10^−8 M
[5] = Homo sapiens, NCI-H522, five doses 10^−4–10^−8 M
[6] = Homo sapiens, SNB-19, five doses 10^−4–10^−8 M

FC(F)(F)c1nc(Cl)c2sc(=S)n(-c3ccccc3)c2n1 [Compound 3b, 7-chloro-3-phenyl-5-(trifluoromethyl)[1, 3]thiazolo[4,5-d]pyrimidine-2(3H)-thione]
IC50 [1]: 43.8 µM | Growth of Cells (%) (HOP-92; HOP-92, 10^−5 M one dose): −21.23% | log TGI (HOP-92; HOP-92, five doses 10^−4–10^−8 M): −5.56 log M | GI50 (HOP-92; [2]): 1.26 µM | LC50 (HOP-92; [2]): 5.89 µM | Growth of Cells (%) (HCT-116; HCT-116, 10^−5 M one dose): −27.21% | log TGI (HCT-116; HCT-116, five doses 10^−4–10^−8 M): −5.47 log M | GI50 (HCT-116; Homo sapiens, HCT-116, five doses 10^−4–10^−8 M): 1.74 µM | CC50 (HCT-116; Homo sapiens, HCT-116, five doses 10^−4–10^−8 M, read-out: log LC50 (the source's name) (converted)): 6.61 µM | GI50 (K-562; Homo sapiens, K562, K-562, five doses 10^−4–10^−8 M): 0.692 µM | CC50 (K-562; Homo sapiens, K562, K-562, five doses 10^−4–10^−8 M, read-out: log LC50 (the source's name) (converted)): > 100 µM | Growth of Cells (%) (K-562; K-562, 10^−5 M one dose): 33.07% | log TGI (K-562; K-562, five doses 10^−4–10^−8 M): −5.36 log M | GI50 (OVCAR-5; Homo sapiens, OVCAR-5, five doses 10^−4–10^−8 M): 8.71 µM | CC50 (OVCAR-5; Homo sapiens, OVCAR-5, five doses 10^−4–10^−8 M, read-out: log LC50 (the source's name) (converted)): 64.6 µM | Growth of Cells (%) (OVCAR-5; OVCAR-5, 10^−5 M one dose): 86.56% | log TGI (OVCAR-5; OVCAR-5, five doses 10^−4–10^−8 M): −4.60 log M | Growth of Cells (%) (HL-60(TB); 10^−5 M one dose): −41.20% | GI50 (HL-60(TB); [3]): 1.55 µM | log TGI (HL-60(TB); five doses 10^−4–10^−8 M): −5.41 log M | IC50 (MCF-7/WT): 49 ± 1 µM | GI50 (KM12; Homo sapiens, KM12, five doses 10^−4–10^−8 M): 2.29 µM | CC50 (KM12; Homo sapiens, KM12, five doses 10^−4–10^−8 M, read-out: log LC50 (the source's name) (converted)): 14.5 µM | Growth of Cells (%) (KM12; KM12, 10^−5 M one dose): 90.93% | log TGI (KM12; KM12, five doses 10^−4–10^−8 M): −5.30 log M | GI50 (SF-295; Homo sapiens): 12.3 µM | LC50 (SF-295; Homo sapiens): 52.5 µM | log TGI (SF-295): −4.59 log M | IC50 (C32; C32, MTT, mean ± SD): 24.4 ± 0.5 µM | viability at 50 µM (C32; C32 amelanotic melanoma, 50 µM): 20% | GI50 (IGROV1; Homo sapiens, IGROV-1, IGROV1, five doses 10^−4–10^−8 M): 1.95 µM | CC50 (IGROV1; Homo sapiens, IGROV-1, IGROV1, five doses 10^−4–10^−8 M, read-out: log LC50 (the source's name) (converted)): 7.59 µM | Growth of Cells (%) (IGROV1; IGROV1, 10^−5 M one dose): 63.57% | log TGI (IGROV1; IGROV1, five doses 10^−4–10^−8 M): −5.41 log M | GI50 (SW620; [4]): 2.14 µM | LC50 (50% lethal concentration) (SW620; [4]): 21.4 µM | Growth of Cells (%) (SW620; SW620, 10^−5 M one dose): −63.05% | log TGI (SW620; SW620, five doses 10^−4–10^−8 M): −5.32 log M | Growth of Cells (%) (A549/ATCC; 10^−5 M one dose): 91.16% | GI50 (A549/ATCC; [3]): 7.59 µM | LC50 (A549/ATCC; [3]): 53.7 µM | log TGI (A549/ATCC; five doses 10^−4–10^−8 M): −4.66 log M | Growth of Cells (%) (HT29; HT29, 10^−5 M one dose): −71.75% | log TGI (HT29; HT29, five doses 10^−4–10^−8 M): −5.40 log M | GI50 (HT29; Homo sapiens, HT-29, HT29, five doses 10^−4–10^−8 M): 1.91 µM | Growth of Cells (%) (UACC-62): 79.14% | GI50 (NCI-H522; [5]): 0.204 µM | LC50 (NCI-H522; [5]): 1.51 µM | Growth of Cells (%) (NCI-H522; NCI-H522, 10^−5 M one dose): −67.57% | log TGI (NCI-H522; NCI-H522, five doses 10^−4–10^−8 M): −6.33 log M | Growth of Cells (%) (NCI/ADR-RES; 10^−5 M one dose): 109.92% | GI50 (NCI/ADR-RES; [3]): 3.31 µM | CC50 (NCI/ADR-RES; Homo sapiens, five doses 10^−4–10^−8 M, read-out: log LC50 (the source's name) (converted)): > 100 µM | log TGI (NCI/ADR-RES; five doses 10^−4–10^−8 M): −4.96 log M | GI50 (NCI-H23; Homo sapiens, NCI-H23, five doses 10^−4–10^−8 M): 3.09 µM | CC50 (NCI-H23; Homo sapiens, NCI-H23, five doses 10^−4–10^−8 M, read-out: log LC50 (the source's name) (converted)): 93.3 µM | Growth of Cells (%) (NCI-H23; NCI-H23, 10^−5 M one dose): 99.73% | log TGI (NCI-H23; NCI-H23, five doses 10^−4–10^−8 M): −4.95 log M | Growth of Cells (%) (HOP-62; HOP-62, 10^−5 M one dose): 95.98% | log TGI (HOP-62; HOP-62, five doses 10^−4–10^−8 M): −5.46 log M | GI50 (HOP-62; Homo sapiens, HOP-62, read-out: log GI50 (converted)): 1.86 µM | CC50 (HOP-62; Homo sapiens, HOP-62, five doses 10^−4–10^−8 M, read-out: log LC50 (the source's name) (converted)): 6.31 µM | GI50 (SNB-19; [6]): 1.78 µM | LC50 (SNB-19; [6]): 5.89 µM | Growth of Cells (%) (SNB-19; SNB-19, 10^−5 M one dose): 98.46% | log TGI (SNB-19; SNB-19, five doses 10^−4–10^−8 M): −5.49 log M | IC50 (A375; A-375, 72 h, A375, MTT, mean ± SD): 25.4 ± 0.5 µM | viability at 50 µM (A375; A-375, A375 melanotic melanoma, 50 µM, 72 h): 20%
